Drawing on ChEMBL document CHEMBL1137447 (Bioorg Med Chem, 2007), this text covers Activity, IC50 and Ratio IC50 for 7 compounds.

Assay [1] can be described thus: Effect on nitric oxide release in pH 7.4 PBS buffer in presence of rat serum at 37 degC after 1.5 hrs. In kind it is functional.
Assay [2] is described as follows: Effect on nitric oxide release in pH 7.4 PBS buffer at 37 degC after 1.5 hrs. It counts as functional.
In assay [3] the target is T1, Prostaglandin G/H synthase 1 (Ovis aries, UniProt P05979).
T1 sequence (P05979 whole entry): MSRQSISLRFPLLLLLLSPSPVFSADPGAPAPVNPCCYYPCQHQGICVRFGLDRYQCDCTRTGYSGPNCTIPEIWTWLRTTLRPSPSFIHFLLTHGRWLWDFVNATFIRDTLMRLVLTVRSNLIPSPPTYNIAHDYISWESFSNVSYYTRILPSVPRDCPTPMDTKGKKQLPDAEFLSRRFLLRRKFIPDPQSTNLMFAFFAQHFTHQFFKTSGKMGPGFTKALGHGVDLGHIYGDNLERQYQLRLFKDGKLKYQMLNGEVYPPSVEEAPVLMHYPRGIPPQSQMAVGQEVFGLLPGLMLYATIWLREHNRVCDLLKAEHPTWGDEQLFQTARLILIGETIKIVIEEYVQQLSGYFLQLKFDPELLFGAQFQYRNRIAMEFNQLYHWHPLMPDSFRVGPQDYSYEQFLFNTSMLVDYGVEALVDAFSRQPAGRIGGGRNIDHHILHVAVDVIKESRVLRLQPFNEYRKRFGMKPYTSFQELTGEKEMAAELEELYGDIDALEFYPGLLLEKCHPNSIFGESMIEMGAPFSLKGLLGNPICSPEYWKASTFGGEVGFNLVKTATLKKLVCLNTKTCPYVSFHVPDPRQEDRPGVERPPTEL
Briefly: Inhibition of ovine COX1 by enzyme immuno assay.

The species entered for a further assay is Ovis aries. Nature of the assay: Selectivity index, ratio of IC50 for ovine COX1 to IC50 for ovine COX2.

With `CCN(CC)/[N+]([O-])=N/O`, the Activity came to 85.1% in assay [1] and 85% in assay [2].
As for `CCN(CC)/[N+]([O-])=N\OCOC(=O)/C(=C/c1ccc(S(C)(=O)=O)cc1)c1cccc(Br)c1`, the Activity in assay [1] was 59.2%; in assay [2], 3.2%. In assay [3], the half-inhibitory concentration (IC50) is 1100 nM. The Ratio IC50 in the assay filed under Ovis aries amounted to 0.03.
Taken in the same sequence, the figures for `CCN(CC)/[N+]([O-])=N\OCOC(=O)/C(=C/c1ccc(S(C)(=O)=O)cc1)c1ccc(F)cc1` were 75.3%, 7.1%, 1000 nM and 0.43.
On to `CS(=O)(=O)c1ccc(/C=C(/C(=O)OCO/N=[N+](/[O-])N2CCCC2)c2ccc(F)cc2)cc1`, for which the values for the Activity in assay [1] and in assay [2] were 67.1% and 11.3%, respectively. This compound also displayed an IC50 in assay [3] above 100000 nM. Moreover, the Ratio IC50 in the assay listed under Ovis aries is above 9.2.
Taken in the same sequence, the figures for `CS(=O)(=O)c1ccc(/C=C(/C(=O)OCO/N=[N+](/[O-])N2CCCC2)c2cccc(Br)c2)cc1` were 48.6%, 6.9%, 2500 nM and 0.22.
For `CCN(CC)/[N+]([O-])=N\OCOC(=O)/C(=C/c1ccc(S(C)(=O)=O)cc1)c1ccc(NC(C)=O)cc1` the same measures were 70.4%, 6.5%, above 100000 nM and above 5.9.
With `CC(=O)Nc1ccc(/C(=C\c2ccc(S(C)(=O)=O)cc2)C(=O)OCO/N=[N+](/[O-])N2CCCC2)cc1`, the Activity was determined as 73% in assay [1] and 9.9% in assay [2]. Besides, the half-inhibitory concentration (IC50) in assay [3] is above 100000 nM. In addition, in the assay filed under Ovis aries, the Ratio IC50 is above 106.

By IC50 is commonly meant the concentration that inhibits the measured activity by half. Low values mean greater potency in that assay, high ones weaker potency in that assay.
